These results are taken from publication PMC8360864, “Benzylmalonyl-CoA dehydrogenase, an enzyme involved in bacterial auxin degradation” (Archives of Microbiology, 2021).

The target of data set [1] is T1, Benzylmalonyl-CoA dehydrogenase (IaaF) (Aromatoleum aromaticum, UniProt Q5P5Z9).
T1 construct: fusion protein of IaaF with a N-terminal Strep-tag
T1 sequence (Q5P5Z9 1-377): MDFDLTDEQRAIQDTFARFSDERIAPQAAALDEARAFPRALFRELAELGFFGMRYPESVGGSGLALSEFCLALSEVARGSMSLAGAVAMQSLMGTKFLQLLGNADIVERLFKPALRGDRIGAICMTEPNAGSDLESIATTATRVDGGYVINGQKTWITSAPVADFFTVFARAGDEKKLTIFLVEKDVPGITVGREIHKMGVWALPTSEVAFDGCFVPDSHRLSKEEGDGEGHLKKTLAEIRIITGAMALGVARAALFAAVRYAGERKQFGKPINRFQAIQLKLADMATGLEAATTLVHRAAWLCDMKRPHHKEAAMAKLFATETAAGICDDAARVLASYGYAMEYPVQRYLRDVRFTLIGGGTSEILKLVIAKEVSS
In words: product formation by HPLC and UV-Vis with purified enzyme. It counts as biochemical.

Substrate in the data set “purified protein”: CC(C)(COP(=O)(O)OP(=O)(O)OC[C@H]1O[C@@H](n2cnc3c(N)ncnc32)[C@H](O)[C@@H]1OP(=O)(O)O)[C@@H](O)C(=O)NCCC(=O)NCCSC(=O)C(Cc1ccccc1)C(=O)O
As to the kind of experiment: purified protein. Format: biochemical, Aromatoleum aromaticum. To be noted: FAD active site (GGG motif replacing YEG) proposed.

Take `CC(C)(COP(=O)(O)OP(=O)(O)OC[C@H]1O[C@@H](n2cnc3c(N)ncnc32)[C@H](O)[C@@H]1OP(=O)(O)O)[C@@H](O)C(=O)NCCC(=O)NCCSC(=O)/C=C/c1ccccc1` [cinnamoyl-CoA]: the “product formation by HPLC and UV-Vis with purified enzyme” value in data set [1] is “formation of a new CoA-thioester over time which was identified as cinnamoyl-CoA by its UV–Vis spectrum”.

B1: Benzylmalonyl-CoA dehydrogenase (IaaF) (Aromatoleum aromaticum EbN1) (protein)
chain: MDFDLTDEQRAIQDTFARFSDERIAPQAAALDEARAFPRALFRELAELGFFGMRYPESVGGSGLALSEFCLALSEVARGSMSLAGAVAMQSLMGTKFLQLLGNADIVERLFKPALRGDRIGAICMTEPNAGSDLESIATTATRVDGGYVINGQKTWITSAPVADFFTVFARAGDEKKLTIFLVEKDVPGITVGREIHKMGVWALPTSEVAFDGCFVPDSHRLSKEEGDGEGHLKKTLAEIRIITGAMALGVARAALFAAVRYAGERKQFGKPINRFQAIQLKLADMATGLEAATTLVHRAAWLCDMKRPHHKEAAMAKLFATETAAGICDDAARVLASYGYAMEYPVQRYLRDVRFTLIGGGTSEILKLVIAKEVSS
notes: fusion protein of IaaF with a N-terminal Strep-tag
As a reminder, the Km is the substrate concentration at which the rate is half of its maximum. Take B1: in “purified protein”, the Michaelis constant (Km) is reported as 1.6 ± 0.3 µM.
